Reference: US12509454B2, “Thiadiazolyl derivatives” (IDEAYA Biosciences, Inc., priority 2019, dated 2025)

Molecular target: Pol theta (1-899) (Homo sapiens (Human), UniProt O75417)
Test: Pol theta ATPase activity, NADH oxidation-coupled enzymatic assay
Format: biochemical
Settings: Pol theta (1-899) 10 nM, ATP, dT50 ssDNA, absorbance 340 nm, 10-point dilution series; read-out: ATPase NADH coupling:Standard Screening:hPolQ IC50
Procedure, shortened: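 Pol theta (1-899), 10 nM, preincubated 15 min at RT with 10-point compound series in Tris pH 7.80/KCl/MgCl2 buffer, then given 100 μM ATP plus 300 nM dT50 ssDNA with PK/LDH-coupled NADH oxidation. A340 followed for 30 min; rate slopes fitted with a four-parameter model for IC50.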

Chain of Pol theta (1-899) (O75417 1-899): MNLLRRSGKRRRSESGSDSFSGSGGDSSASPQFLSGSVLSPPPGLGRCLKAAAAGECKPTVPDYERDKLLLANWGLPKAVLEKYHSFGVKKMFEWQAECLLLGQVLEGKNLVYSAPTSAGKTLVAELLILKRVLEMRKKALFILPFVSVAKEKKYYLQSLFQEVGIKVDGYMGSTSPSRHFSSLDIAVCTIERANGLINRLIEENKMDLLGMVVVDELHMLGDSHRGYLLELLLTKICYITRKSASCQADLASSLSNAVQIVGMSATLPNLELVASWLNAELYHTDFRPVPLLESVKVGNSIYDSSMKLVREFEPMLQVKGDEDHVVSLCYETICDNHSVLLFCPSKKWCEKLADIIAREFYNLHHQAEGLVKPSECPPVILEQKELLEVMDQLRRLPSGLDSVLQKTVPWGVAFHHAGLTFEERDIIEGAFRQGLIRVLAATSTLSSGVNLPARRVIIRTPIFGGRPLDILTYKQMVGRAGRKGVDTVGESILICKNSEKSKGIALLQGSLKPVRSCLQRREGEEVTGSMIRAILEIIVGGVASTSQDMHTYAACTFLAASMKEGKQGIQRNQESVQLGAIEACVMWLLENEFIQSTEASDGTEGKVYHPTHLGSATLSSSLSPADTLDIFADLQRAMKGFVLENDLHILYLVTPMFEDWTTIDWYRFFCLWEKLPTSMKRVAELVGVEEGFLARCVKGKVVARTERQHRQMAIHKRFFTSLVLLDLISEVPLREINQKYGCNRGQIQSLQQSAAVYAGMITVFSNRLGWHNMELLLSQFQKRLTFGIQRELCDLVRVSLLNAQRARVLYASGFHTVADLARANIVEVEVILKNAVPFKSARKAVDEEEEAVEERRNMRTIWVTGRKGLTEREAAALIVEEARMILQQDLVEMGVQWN

| IC50 [nM] | Structure (SMILES) |
| --- | --- |
| ≤ 200 | COc1ccccc1-c1cc(C#N)ncc1C(=O)Nc1nnc(OCc2ccc(Cl)cn2)s1 [Example 96, N-(5-((5-chloropyridin-2-yl)methoxy)-1,3,4-thiadiazol-2-yl)-6-cyano-4-(2-methoxyphenyl)nicotinamide] |
| ≤ 200 | COc1ccccc1-c1cc(C#N)ncc1C(=O)Nc1nnc(OCCC2CC2)s1 [Example 154, 6-cyano-N-(5-(2-cyclopropylethoxy)-1,3,4-thiadiazol-2-yl)-4-(2-methoxyphenyl)nicotinamide] |
| ≤ 200 | COc1ccccc1-c1cc(C)ncc1C(=O)Nc1nnc(OCc2ccc(C#N)cn2)s1 [Example 219, N-(5-((5-cyanopyridin-2-yl)methoxy)-1,3,4-thiadiazol-2-yl)-4-(2-methoxyphenyl)-6-methylnicotinamide] |
| ≤ 200 | COc1ccccc1-c1cnncc1C(=O)Nc1nnc(OCc2ccc(Cl)cn2)s1 [Example 106, N-(5-((5-chloropyridin-2-yl)methoxy)-1,3,4-thiadiazol-2-yl)-5-(2-methoxyphenyl)pyridazine-4-carboxamide] |
| 1000 to 10000 | O=C(Nc1nnc(OCc2ccc(Cl)cn2)s1)c1cncn1-c1ccccn1 [Example 38, N-(5-((5-chloropyridin-2-yl)methoxy)-1,3,4-thiadiazol-2-yl)-1-(pyridin-2-yl)-1H-imidazole-5-carboxamide] |
| 200 to 500 | COc1ccccc1-c1cc(C)ncc1C(=O)Nc1nnc(OCCc2ccc(Cl)cn2)s1 [Example 197, N-(5-(2-(5-chloropyridin-2-yl)ethoxy)-1,3,4-thiadiazol-2-yl)-4-(2-methoxyphenyl)-6-methylnicotinamide] |
| ≤ 200 | COc1ccccc1-c1cc(C#N)ncc1C(=O)Nc1nnc(OCc2ccc(Cl)cc2)s1 [Example 92, N-(5-((4-chlorobenzyl)oxy)-1,3,4-thiadiazol-2-yl)-6-cyano-4-(2-methoxyphenyl)nicotinamide] |
| ≤ 200 | COc1ccc(-n2cncc2C(=O)Nc2nnc(OCc3ccc(Cl)cc3)s2)c(OC)c1 [Example 31, N-(5-((4-chlorobenzyl)oxy)-1,3,4-thiadiazol-2-yl)-1-(2,4-dimethoxyphenyl)-1H-imidazole-5-carboxamide] |
| 200 to 500 | CC1COCCN1c1ncccc1C(=O)Nc1nnc(OCc2ccc(Cl)cc2)s1 (racemic) [Example 5, (R) N-(5-((4-chlorobenzyl)oxy)-1,3,4-thiadiazol-2-yl)-2-(3-methylmorpholino)-nicotinamide and (S)—N-(5-((4-chlorobenzyl)oxy)-1,3,4-thiadiazol-2-yl)-2-(3-methylmorpholino)nicotinamide] |
| 500 to 1000 | O=C(Nc1nnc(OCc2ccc(Cl)cc2)s1)c1cncn1-c1cccnc1 [Example 17, N-(5-((4-chlorobenzyl)oxy)-1,3,4-thiadiazol-2-yl)-1-(pyridin-3-yl)-1H-imidazole-5-carboxamide] |
| 200 to 500 | O=C(Nc1nnc(OCc2ccc(Cl)cn2)s1)c1ccncc1N1CCOC2(CC2)C1 [Example 173, N-[5-[(5-chloropyridin-2-yl)methoxy]-1,3,4-thiadiazol-2-yl]-3-[4-oxa-7-azaspiro[2.5]octan-7-yl]pyridine-4-carboxamide] |
| ≤ 200 | COc1ccccc1-n1cncc1C(=O)Nc1nnc(OCc2ccc(C3CC3)cc2)s1 [Example 149, N-(5-((4-cyclopropylbenzyl)oxy)-1,3,4-thiadiazol-2-yl)-1-(2-methoxyphenyl)-1H-imidazole-5-carboxamide] |
| 1000 to 10000 | CN(C)C(=O)c1cc(N2CCOCC2)c(C(=O)Nc2nnc(OCc3ccc(Cl)cc3)s2)cn1 [Example 73, N^5-(5-((4-chlorobenzyl)oxy)-1,3,4-thiadiazol-2-yl)-N2,N2-dimethyl-4-morpholinopyridine-2,5-dicarboxamide] |
| ≤ 200 | N#Cc1cc(N2CCOC3(CC3)C2)c(C(=O)Nc2nnc(OCc3ccc(Cl)cc3)s2)cn1 [Example 177, N-[5-[(4-chlorophenyl)methoxy]-1,3,4-thiadiazol-2-yl]-6-cyano-4-[4-oxa-7-azaspiro[2.5]octan-7-yl]pyridine-3-carboxamide] |
| ≤ 200 | O=C(Nc1nnc(OCc2ccc(Cl)cc2)s1)c1ccncc1-c1ccccc1OC(F)F [Example 100, N-(5-((4-chlorobenzyl)oxy)-1,3,4-thiadiazol-2-yl)-3-(2-(difluoromethoxy)phenyl)isonicotinamide] |
| ≤ 200 | COc1ccccc1-c1cnccc1C(=O)Nc1nnc(OCc2cccc3[nH]ncc23)s1 [Example 181, N-[5-(1H-indazol-4-ylmethoxy)-1,3,4-thiadiazol-2-yl]-3-(2-methoxyphenyl)pyridine-4-carboxamide] |
| 1000 to 10000 | O=C(Nc1nnc(OCc2ccc(Cl)cc2)s1)c1cccnc1N1CCN2C(=O)CC[C@H]2C1 (single isomer, unassigned) [Example 69, (R)—N-(5-((4-chlorobenzyl)oxy)-1,3,4-thiadiazol-2-yl)-2-(6-oxohexahydropyrrolo[1,2-a]pyrazin-2(1H)-yl)nicotinamide or (S)—N-(5-((4-chlorobenzyl)oxy)-1,3,4-thiadiazol-2-yl)-2-(6-oxohexahydropyrrolo[1,2-a]pyrazin-2(1H)-yl)nicotinamide] |
| 500 to 1000 | COc1cccc(OC)c1-c1ccncc1C(=O)Nc1nnc(OCc2ccc(Cl)cc2)s1 [Example 128, N-(5-((4-chlorobenzyl)oxy)-1,3,4-thiadiazol-2-yl)-4-(2,6-dimethoxyphenyl)nicotinamide] |
| ≤ 200 | COc1ccccc1-c1cnccc1C(=O)Nc1nnc(OCc2ccc(Cl)c3[nH]ncc23)s1 [Example 107, N-(5-((7-chloro-1H-indazol-4-yl)methoxy)-1,3,4-thiadiazol-2-yl)-3-(2-methoxyphenyl)isonicotinamide] |
| ≤ 200 | COc1ccccc1-c1cnccc1C(=O)Nc1nnc(OCc2ccc(C3(C#N)CC3)cc2)s1 [Example 141, N-(5-[[4-(1-cyanocyclopropyl)phenyl]methoxy]-1,3,4-thiadiazol-2-yl)-3-(2-methoxyphenyl)pyridine-4-carboxamide] |
| 1000 to 10000 | O=C1CN(c2ncccc2C(=O)Nc2nnc(OCc3ccc(Cl)cc3)s2)CCCN1 [Example 63, N-(5-((4-chlorobenzyl)oxy)-1,3,4-thiadiazol-2-yl)-2-(3-oxo-1,4-diazepan-1-yl)nicotinamide] |
| ≤ 200 | COc1ccccc1-c1cc(C(=O)O)ncc1C(=O)Nc1nnc(OCc2ccc(Br)cc2)s1 [Example 152, 5-([5-[(4-bromophenyl)methoxy]-1,3,4-thiadiazol-2-yl]carbamoyl)-4-(2-methoxyphenyl)pyridine-2-carboxylic acid] |
| ≤ 200 | COc1ccccc1-c1cc(CO)ncc1C(=O)Nc1nnc(OCc2ccc(Cl)cc2)s1 [Example 102, N-(5-((4-chlorobenzyl)oxy)-1,3,4-thiadiazol-2-yl)-6-(hydroxymethyl)-4-(2-methoxyphenyl)nicotinamide] |
| 1000 to 10000 | O=C(Nc1nnc(OCc2cnc(Cl)cn2)s1)c1cccnc1N1CCOCC1 [Example 19, N-[5-[(5-chloropyrazin-2-yl)methoxy]-1,3,4-thiadiazol-2-yl]-2-(morpholin-4-yl)pyridine-3-carboxamide] |
| ≤ 200 | COc1cccc(F)c1-c1cc(CO)ncc1C(=O)Nc1nnc(OCc2ccc(Cl)cn2)s1 [Example 206, N-[5-[(5-chloropyridin-2-yl)methoxy]-1,3,4-thiadiazol-2-yl]-4-(2-fluoro-6-methoxyphenyl)-6-(hydroxymethyl)pyridine-3-carboxamide] |
